# Several values for one entry are separate records, joined by “and”; a condition that tells them apart may be missing. Equal entries are not always repeated. Where two headings read alike, the source gives them in different places.
# Tests used:
# Type in all cases: biochemical
# DPPH· scavenging = conditions: mean ± SD, n = 3
# [1] = ABTS·+ decolourisation capacity; conditions: mean ± SD, n = 3
# Method: Fast colourimetric methods were slightly modified for the in vitro assessment of DPPH· scavenging ([19]), ABTS·+ decolourisation capacity ([20]), and total antioxidant capacity of FRAP ([21]). The stock solutions of derivatisation reagents were diluted as follows before measurement: DPPH was diluted with absolute ethanol until the absorbance was 0.8 ± 0.05 at λ = 517 nm. ABTS working solution was prepared with phosphate buffer (0.2 M, pH 7.4) to display absorbance of 0.8 ± 0.05 at λ = 729 nm, based on a previous study ([22]). The FRAP solution was prepared according to the instructions of the FRAP kit. Absorbances were measured using an automatic microplate reader (Molecular Group Ltd., USA), and all analyses were performed using 96-well plates. All measurements were performed in triplicate, and Trolox was used as a positive control.
# For ABTS·+ decolourisation capacity, 100 μl of ABTS working solution was mixed with 200 μl of sample solution, and the absorbance was recorded after 10 min at 729 nm. Phosphate buffer (0.2 M, pH 7.4) was used as a negative control.
# DPPH· and ABTS·+ radical scavenging activities of the tested sample were both calculated using the following formula:
# % inhibition = (A control − A sample)/A control × 100
# Where A control and A sample represent the absorbance of the control and test samples, respectively. The IC50 was calculated graphically from the dose-inhibition curves.
# [2] = FRAP total antioxidant capacity;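 further: colourimetric FRAP kit assay read as absorbance in 96-well plates, values as mM FeSO4 via standard curve, EC1 being sample concentration matching 1.0 mmol/L FeSO4, Trolox positive control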
# COX-2 = molecular target: T1, COX-2 (Homo sapiens, UniProt P35354); assay: Anti-COX-2 assay (COX-2 Inhibitor Screening Kit)
# T1 construct: purchased Beyotime S0168
# T1 sequence (P35354 18-604): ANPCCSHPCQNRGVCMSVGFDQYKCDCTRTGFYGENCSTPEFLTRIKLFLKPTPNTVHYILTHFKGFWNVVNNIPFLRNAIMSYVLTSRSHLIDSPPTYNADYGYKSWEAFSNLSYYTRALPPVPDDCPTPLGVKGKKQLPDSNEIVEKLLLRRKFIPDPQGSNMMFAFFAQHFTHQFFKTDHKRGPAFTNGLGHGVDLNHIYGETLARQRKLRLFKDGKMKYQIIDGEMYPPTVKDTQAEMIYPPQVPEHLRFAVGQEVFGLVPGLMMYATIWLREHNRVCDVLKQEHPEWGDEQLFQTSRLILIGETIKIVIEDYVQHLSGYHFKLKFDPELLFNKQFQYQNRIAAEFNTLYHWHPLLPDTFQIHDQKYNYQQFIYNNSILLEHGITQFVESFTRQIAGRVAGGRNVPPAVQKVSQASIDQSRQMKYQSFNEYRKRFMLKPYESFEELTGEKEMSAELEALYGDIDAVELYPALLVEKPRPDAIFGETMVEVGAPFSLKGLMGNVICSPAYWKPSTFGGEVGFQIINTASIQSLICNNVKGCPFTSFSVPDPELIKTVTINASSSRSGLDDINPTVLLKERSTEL
# [3] = Fluorescent AGEs formation in a BSA-fructose/glucose system; conditions: for inhibition of fluorescent AGEs formation (BSA-抗糖化), single replicate: individual replicate; for inhibition of fluorescent AGEs formation (BSA-抗糖化), 平均 (mean): mean of 3 replicates; for IC50: mean ± SD, n = 3, read-out: BSA-glycation IC50
# Method: Glycated protein was prepared in vitro by incubating BSA in the presence of D-glucose (GLC) and D-fructose (FRC). The DOF extract and specific standards were dissolved in DMSO:water (1:4). […] The assay was performed in triplicate, and AG was used as a positive control. The percentage inhibition of fluorescent AGE formation was calculated using the following equation: […] Where IF sample is fluorescence intensity in the presence of samples and BSA, IF sample control is fluorescence intensity in the presence of samples without BSA, IF control is fluorescence intensity without samples, and IF blank control is fluorescence intensity without samples and BSA.
# [4] = lower part of sheet (compound series)
smiles,measurement,setting,value
"O=c1c(O[C@@H]2O[C@H](CO)[C@@H](O)[C@H](O)[C@H]2O)c(-c2ccc(O)cc2)oc2cc(O)cc(O)c12 [compound 31, Astragalin]",IC50,DPPH· scavenging,> 5 mM
same,IC50,[1],34.31 ± 0.1 µM
same,FRAP EC1,[2]; [4],>5000 µM
same,COX-2 inhibition (in words),COX-2,no inhibitory effects
same,COX-2 inhibition,"COX-2; 3.125 μM, single replicates, listed as T13, 3.125 µM",9.26% and 13.01% and -4.90%
same,COX-2 inhibition,"COX-2; 6.25 μM, single replicates, listed as T13, 6.25 µM",7.55% and 7.65% and -2.11%
same,COX-2 inhibition,"COX-2; 12.5 μM, single replicates, listed as T13, 12.5 µM",5.53% and -11.45% and -30.89%
same,COX-2 inhibition,"COX-2; 25 μM, single replicates, listed as T13, 25 µM",-6.59% and -8.12% and -23.58%
same,COX-2 inhibition,"COX-2; 50 μM, single replicates, listed as T13, 50 µM",-22.46% and -22.25% and -29.37%
same,COX-2 inhibition,"COX-2; 100 μM, single replicates, listed as T13, 100 µM",-33.58% and -17.93% and -41.32%
same,COX-2 inhibition,"COX-2; 200 μM, single replicates, listed as T13, 200 µM",-24.47% and -35.20% and -49.99%
same,"inhibition of fluorescent AGEs formation (BSA-抗糖化), single replicate","[3]; 15.625 µM, listed as T13, 15.625 µM",3.97% and 2.43% and 3.28%
same,"inhibition of fluorescent AGEs formation (BSA-抗糖化), 平均 (mean)",[3]; 15.625 µM,3.23%
same,"inhibition of fluorescent AGEs formation (BSA-抗糖化), single replicate","[3]; 31.25 µM, listed as T13, 31.25 µM",6.47% and 9.23% and 6.65%
same,"inhibition of fluorescent AGEs formation (BSA-抗糖化), 平均 (mean)",[3]; 31.25 µM,7.45%
same,"inhibition of fluorescent AGEs formation (BSA-抗糖化), single replicate","[3]; 62.5 µM, listed as T13, 62.5 µM",16.61% and 18.46% and 18.15%
same,"inhibition of fluorescent AGEs formation (BSA-抗糖化), 平均 (mean)",[3]; 62.5 µM,17.74%
same,"inhibition of fluorescent AGEs formation (BSA-抗糖化), single replicate","[3]; 125 µM, listed as T13, 125 µM",25.98% and 33.83% and 29.94%
same,"inhibition of fluorescent AGEs formation (BSA-抗糖化), 平均 (mean)",[3]; 125 µM,29.92%
same,"inhibition of fluorescent AGEs formation (BSA-抗糖化), single replicate","[3]; 250 µM, listed as T13, 250 µM",39.66% and 53.40% and 48.31%
same,"inhibition of fluorescent AGEs formation (BSA-抗糖化), 平均 (mean)",[3]; 250 µM,47.12%
same,"inhibition of fluorescent AGEs formation (BSA-抗糖化), single replicate","[3]; 500 µM, listed as T13, 500 µM",65.95% and 67.35% and 67.23%
same,"inhibition of fluorescent AGEs formation (BSA-抗糖化), 平均 (mean)",[3]; 500 µM,66.84%
same,"inhibition of fluorescent AGEs formation (BSA-抗糖化), single replicate","[3]; 1000 µM, listed as T13, 1000 µM",79.55% and 78.97% and 78.39%
same,"inhibition of fluorescent AGEs formation (BSA-抗糖化), 平均 (mean)",[3]; 1000 µM,78.97%
same,"inhibition of fluorescent AGEs formation (BSA-抗糖化), single replicate","[3]; 2000 µM, listed as T13, 2000 µM",89.49% and 89.99% and 89.93%
same,"inhibition of fluorescent AGEs formation (BSA-抗糖化), 平均 (mean)",[3]; 2000 µM,89.80%
same,"inhibition of fluorescent AGEs formation (BSA-抗糖化), single replicate","[3]; 4000 µM (series head 'T9 4000µM', 2-fold dilutions), listed as T13",94.89% and 93.91% and 94.80%
same,"inhibition of fluorescent AGEs formation (BSA-抗糖化), 平均 (mean)",[3]; 4000 µM,94.53%
same,IC50,[3],276 ± 33 µM
"COc1cc(-c2oc3cc(O)cc(O)c3c(=O)c2OC2OC(CO)C(O)C(O)C2O)ccc1O (stereo not drawn) [compound 32, Isorhamnetin-3-O-glucoside]",IC50,DPPH· scavenging,2.37 mM
same,IC50,[1],44.7 ± 1.52 µM
same,FRAP EC1,[2]; [4],2757.3 ± 103.8 µM
same,FRAP EC1,"[2]; mean ± SD, n = 3","2,757.3 ± 103.8 μM"
same,inhibition at 31.25 µM,"COX-2; 31.25 μM, single replicates",5.99%
same,COX-2 inhibition,"COX-2; 31.25 μM, single replicates, listed as T14, 31.25 µM",4.35%
same,COX-2 inhibition,"COX-2; 62.5 μM, single replicates, listed as T14, 62.5 µM",-8.14% and 8.77% and -5.55%
same,COX-2 inhibition,"COX-2; 125 μM, single replicates, listed as T14, 125 µM",16.41% and 9.67% and 1.80%
same,COX-2 inhibition,"COX-2; 250 μM, single replicates, listed as T14, 250 µM",18.89% and 38.58% and 20.11%
same,inhibition at 500 µM,"COX-2; 500 μM, single replicates",53.6%
same,COX-2 inhibition,"COX-2; 500 μM, single replicates, listed as T14, 500 µM",61.95% and 42.08%
same,inhibition at 1000 µM,"COX-2; 1000 μM, single replicates",77.5%
same,COX-2 inhibition,"COX-2; 1000 μM, single replicates, listed as T14, 1000 µM",79.82% and 70.09%
same,inhibition at 2000 µM,"COX-2; 2000 μM (2mM), single replicates",76.1%
same,COX-2 inhibition,"COX-2; 2000 μM (2mM), single replicates, listed as T14",78.14% and 68.80%
same,IC50,"COX-2; mean ± SD, n = 3, nd, not detected, read-out: COX-2 IC50",535 ± 150 µM
same,IC50,"COX-2; supplement sheet COX, read-out: COX-2 IC50, single replicate",515 µM and 396 µM and 694 µM
same,"inhibition of fluorescent AGEs formation (BSA-抗糖化), single replicate","[3]; 15.625 µM, listed as T14, 15.625 µM",6.47% and 9.81% and 6.23%
same,"inhibition of fluorescent AGEs formation (BSA-抗糖化), 平均 (mean)",[3]; 15.625 µM,7.50%
same,"inhibition of fluorescent AGEs formation (BSA-抗糖化), single replicate","[3]; 31.25 µM, listed as T14, 31.25 µM",13.37% and 12.51% and 13.56%
same,"inhibition of fluorescent AGEs formation (BSA-抗糖化), 平均 (mean)",[3]; 31.25 µM,13.15%
same,"inhibition of fluorescent AGEs formation (BSA-抗糖化), single replicate","[3]; 62.5 µM, listed as T14, 62.5 µM",22.22% and 24.18% and 24.11%
same,"inhibition of fluorescent AGEs formation (BSA-抗糖化), 平均 (mean)",[3]; 62.5 µM,23.51%
same,"inhibition of fluorescent AGEs formation (BSA-抗糖化), single replicate","[3]; 125 µM, listed as T14, 125 µM",35.72% and 35.84% and 36.17%
same,"inhibition of fluorescent AGEs formation (BSA-抗糖化), 平均 (mean)",[3]; 125 µM,35.91%
same,"inhibition of fluorescent AGEs formation (BSA-抗糖化), single replicate","[3]; 250 µM, listed as T14, 250 µM",54.28% and 53.83% and 54.39%
same,"inhibition of fluorescent AGEs formation (BSA-抗糖化), 平均 (mean)",[3]; 250 µM,54.17%
same,"inhibition of fluorescent AGEs formation (BSA-抗糖化), single replicate","[3]; 500 µM, listed as T14, 500 µM",70.40% and 70.98% and 71.44%
same,"inhibition of fluorescent AGEs formation (BSA-抗糖化), 平均 (mean)",[3]; 500 µM,70.94%
same,"inhibition of fluorescent AGEs formation (BSA-抗糖化), single replicate","[3]; 1000 µM, listed as T14, 1000 µM",83.59% and 83.42% and 83.56%
same,"inhibition of fluorescent AGEs formation (BSA-抗糖化), 平均 (mean)",[3]; 1000 µM,83.53%
same,"inhibition of fluorescent AGEs formation (BSA-抗糖化), single replicate","[3]; 2000 µM, listed as T14, 2000 µM",91.04% and 91.39% and 91.09%
same,"inhibition of fluorescent AGEs formation (BSA-抗糖化), 平均 (mean)",[3]; 2000 µM,91.17%
same,"inhibition of fluorescent AGEs formation (BSA-抗糖化), single replicate","[3]; 4000 µM (series head 'T9 4000µM', 2-fold dilutions), listed as T14",95.57% and 95.55% and 95.41%
same,"inhibition of fluorescent AGEs formation (BSA-抗糖化), 平均 (mean)",[3]; 4000 µM,95.51%
same,IC50,[3],209 ± 3.1 µM

# Reference: publication PMC10064984, “Anti-cyclooxygenase, anti-glycation, and anti-skin aging effect of Dendrobium officinale flowers’ aqueous extract and its phytochemical validation in aging” (Frontiers in Immunology, 2023)
